From patent US6420330B1, “Use of quaternary carboxylic acid alkanolamine ester salts as microbicide agents” (Cognis Deutschland GmbH, priority 1997, dated 2002)

What was measured:
[1] = system: Staphylococcus aureus ATCC 6538; assay: DGHM suspension test, microbicidal activity; assay type: cell-based
Method: (§1) The microbicidal activity of the quanterary carboxylic acid alkanolamine ester salts used in accordance with the invention was tested against the following selected test germs:
(§2) The effectiveness of the compound to be tested was determined by the suspension test in accordance with the guidelines of the Deutsche Gesellschaft for Hygiene and Mikrobiologie (DGHM). Test solutions containing quatemary carboxylic acid alkanolamine ester salts in the quantities shown in the Tables of 50, 100, 200, 400 and 800 mg/l were prepared using water with a hardness of 17° dH and optionally isopropanol.
(§3) At room temperatures, quantities of 0.1 ml test germ suspension were pipetted into test tubes containing 10 ml of the test solutions described above and mixed. After various contact times of 5, 15, 30 and 60 minutes, 1 ml of material was taken from the test tubes by pipette and transferred to 9 ml inactivator solution (inactivators: 3.0% Tween, 0.3% lecithin, 0.1% histidine). After in activation for at least 5 and at most 30 minutes, the living germ count was determined by plating out onto casein peptone-soybean flour peptone (CaSo)-agar plates. Using a spiral plater, the inactivating mixture was directly plated out onto CaSo-agar. The samples were incubated for 24 to 72 hours at 37° C. and macroscopically evaluated for growth. The destruction time or the residual germ count was determined in this way. The germ count of an unchallenged water control is related to the germ count of the inactivated test solution taking the dilution into account. The higher the value, the better the microbicidal effect. The symbol < means that the logarithmic reductuon factor is below the indicated value or, in the case of the symbol >, above the indicated value. The abbreviation CU stands for “concentration used”.

[2] = system: Pseudomonas aeruginosa ATCC 15442; assay: DGHM suspension test, microbicidal activity; assay type: cell-based
Method: as §1, §2, §3

[3] = CU 50 mg/l, contact time 5 mins.
[4] = CU 50 mg/l, contact time 15 mins.
[5] = CU 50 mg/l, contact time 30 mins.
[6] = CU 50 mg/l, contact time 60 mins.
[7] = CU 100 mg/l, contact time 5 mins.
[8] = CU 100 mg/l, contact time 15 mins.
[9] = CU 100 mg/l, contact time 30 mins.
[10] = CU 100 mg/l, contact time 60 mins.
[11] = CU 200 mg/l, contact time 5 mins.
[12] = CU 200 mg/l, contact time 15 mins.
[13] = CU 200 mg/l, contact time 30 mins.
[14] = CU 200 mg/l, contact time 60 mins.
[15] = CU 400 mg/l, contact time 5 mins.
[16] = CU 400 mg/l, contact time 15 mins.
[17] = CU 400 mg/l, contact time 30 mins.
[18] = CU 400 mg/l, contact time 60 mins.
[19] = CU 800 mg/l, contact time 5 mins.
[20] = CU 800 mg/l, contact time 15 mins.
[21] = CU 800 mg/l, contact time 30 mins.
[22] = CU 800 mg/l, contact time 60 mins.

SMILES | logarithmic reduction factor [1, 3] | logarithmic reduction factor [1, 4] | logarithmic reduction factor [1, 5] | logarithmic reduction factor [1, 6] | logarithmic reduction factor [1, 7] | logarithmic reduction factor [1, 8] | logarithmic reduction factor [1, 9] | logarithmic reduction factor [1, 10] | logarithmic reduction factor [1, 11] | logarithmic reduction factor [1, 12] | logarithmic reduction factor [1, 13] | logarithmic reduction factor [1, 14] | logarithmic reduction factor [2, 7] | logarithmic reduction factor [2, 8] | logarithmic reduction factor [2, 9] | logarithmic reduction factor [2, 10] | logarithmic reduction factor [2, 11] | logarithmic reduction factor [2, 12] | logarithmic reduction factor [2, 13] | logarithmic reduction factor [2, 14] | other results
CCCCCCCCCCCC(=O)OCC[N+](C)(CCO)CCOC(=O)CCCCCCCCCCC.COS(=O)(=O)[O-] [Example 5, methyl triethanolammonium dilauric acid ester methosulfate] | <1.79 | <1.73 | 2.53 | 3.88 | <1.79 | 2.38 | 3.80 | 5.21 | 2.52 | 4.25 | >5.75 | >5.86 | <1.85 | <1.79 | <1.71 | <1.81 | <1.85 | <1.79 | <1.71 | <1.81 | logarithmic reduction factor [1, 15]: 2.70; logarithmic reduction factor [1, 16]: >5.73; logarithmic reduction factor [1, 17]: >5.75; logarithmic reduction factor [1, 18]: >5.86; logarithmic reduction factor [1, 19]: 3.85; logarithmic reduction factor [1, 20]: >5.73; logarithmic reduction factor [1, 21]: >5.75; logarithmic reduction factor [1, 22]: >5.86; logarithmic reduction factor [2, 3]: <1.85; logarithmic reduction factor [2, 4]: <1.79; logarithmic reduction factor [2, 5]: <1.71; logarithmic reduction factor [2, 6]: <1.51; logarithmic reduction factor [2, 15]: <1.85; logarithmic reduction factor [2, 16]: <1.79; logarithmic reduction factor [2, 17]: <1.71; logarithmic reduction factor [2, 18]: 3.84; logarithmic reduction factor [2, 19]: <1.85; logarithmic reduction factor [2, 20]: 3.43; logarithmic reduction factor [2, 21]: 3.95; logarithmic reduction factor [2, 22]: 4.40
CCCCCCCCCCCC(=O)OCC[N+](C)(C)CCOC(=O)CCCCCCCCCCC.COS(=O)(=O)[O-] [Example 8, dimethyl diethanolammonium dilauric acid ester methosulfate] | <1.39 | 3.24 | 4.28 | 4.23 | 1.98 | 3.40 | 5.29 | >5.60 | 2.34 | 4.64 | >5.51 | >5.60 | <1.88 | <1.93 | <1.80 | 3.05 | <1.88 | <1.93 | 3.05 | 3.77 | logarithmic reduction factor [2, 3]: <1.88; logarithmic reduction factor [2, 4]: <1.93; logarithmic reduction factor [2, 5]: <1.80; logarithmic reduction factor [2, 6]: <1.90
CCCCCCCCCC(=O)OCC[N+](C)(CCOC(=O)CCCCCCCCC)CCOC(=O)CCCCCCCCC.COS(=O)(=O)[O-] [Example 9, methyl triethanolammonium tricapric acid ester methosulfate] | <1.39 | <1.59 | <1.51 | <1.60 | <1.39 | <1.59 | <1.51 | 2.09 | <1.39 | <1.59 | 1.83 | 2.97 | <1.88 | <1.93 | <1.80 | <1.90 | <1.88 | <1.93 | <1.80 | 2.94 | logarithmic reduction factor [2, 15]: <1.88; logarithmic reduction factor [2, 16]: <1.93; logarithmic reduction factor [2, 17]: 3.27; logarithmic reduction factor [2, 18]: 3.72
